The values that follow come from patent US20060189565A1, “Pharmaceutical compositions of ganciclovir” (priority 2002, published 2006).

One series deals with cytomegalovirus (CMV). Conditions: human clinical studies; cited from earlier work.
Series [1] can be described thus: Accelerated stability testing of packaged final product. It counts as physicochemical. The following applies: 40° C., 75% RH. The protocol: Accelerated stability testing was conducted by varying the water content of ganciclovir between 1.99% w/w and 2.54% w/w. The packages of final product were stored at 40° C. and 75% RH for a period of three months. At predetermined intervals, some of the packages were opened and analyzed to determine the amount of active ingredient, related impurities (RS), and water content present in the formulation.

Series [2] is described as follows: Moisture uptake by ganciclovir in an open Petri dish. It counts as physicochemical. The following applies: ganciclovir containing 1.99% water, 25° C., 60% RH. The protocol: Different formulations containing variable percentages of water were subjected to stability and moisture uptake studies. For example, ganciclovir containing 1.99% water content was subjected to moisture uptake at 25° C. and 60% relative humidity (RH) in an open Petri dish and the increase in weight was monitored.

The test system of series [3] is herpes simplex virus (HSV). Conditions: human clinical studies; cited from earlier work.

As to `Nc1nc2c(ncn2COC(CO)CO)c(=O)[nH]1` [ganciclovir, 9-(1,3-dihydroxy-2-propoxymethyl) guanine], in the series on cytomegalovirus (CMV), the “activity against cytomegalovirus (CMV)” value is reported as “active”. In addition, the values for the initial purity retained result in series [1] (after one month), in series [1] (after three months) and in series [1] (after two months) were “at least 97%”, “at least 87%” and “at least 96%”, respectively. The purity lost result is “less than about three percent” in series [1] (after one month), “less than about five percent” in series [1] (after three months) and “less than about four percent” in series [1] (after two months). Further, the “Increase in moisture during storage” value in series [2] was “no appreciable increase in moisture during storage”. Also, the Moisture gain in series [2] (2.0 hrs) was 0.12 % w/w; in series [2] (4.0 hrs) it was 0.38 % w/w; in series [2] (8.0 hrs), 0.46 % w/w; in series [2] (48.0 hrs) it was 0.49 % w/w; in series [2] (168.0 hrs (1 week)) it was 0.50 % w/w. Further, the “activity against herpes simplex virus (HSV)” value in series [3] is “active”.
